43 compounds from EP4660185A1, “NAV1.7- AND/OR NAV1.8-INHIBITING AMIDES, PROCESSES FOR THE PREPARATION THEREOF, COMPOSITIONS, USES, METHODS FOR TREATMENT USING SAME, AND KITS” (Eurofarma Laboratórios S.A., priority 2023, dated 2024) can be followed below.

The target of assay [1] is T1, human sodium channels Nav 1.8 (Homo sapiens, UniProt Q9Y5Y9).
T1 construct: expressed in transfected cells
Nature of the assay: Automated whole-cell voltage-clamp (ScreenPatch 384P) sodium current block, Nav 1.8. The format is cell-based. Particulars: CHO cells stably expressing human Nav 1.8; holding -100 mV, inactivation step -40 mV for 8 seconds, test step 10 mV (TP1A); exposure at least five minutes, room temperature; mean where tested in two or more assays; read-out: Nav1.8 IC50. The method, then: (§1) Biological assays were performed on Chinese hamster ovary (CHO) cells that express human sodium channels Nav 1.8 or Nav 1.7 in a stable manner.
(§2) The experimental protocol voltage-clamp using the whole cell configuration was established on the automated ScreenPatch® 384P platform (SP384PE, Nanion Technologies, Livingston, NJ) and the results were recorded with a Nanion 384-well Patch Clamp chip (NPC) (Nanion Technologies, Livingston, NJ).
(§3) Compounds of Formula Ia and Formula Ib were diluted in eight concentrations in the extracellular solution composed of saline solution, buffered with HEPES (mM): NaCl, 137; KCl, 4; CaCl2, 3,8; MgCl2, 1; HEPES, 10; Glucose, 10; pH 7.4. The […], 50; CsF, 90; MgCl2, 5; EGTA, 5; HEPES, 10; pH 7.2. The duration of exposure of each compound with cells expressing Nav 1.7 or Nav 1.8 was at least five minutes, and the assays were performed at room temperature.
(§4) The measurements of the sodium currents of Nav 1.8 and Nav 1.7 were obtained using the voltage protocol described below: A holding voltage of -100 mV was established followed by an inactivation voltage step at -40 mV for 8 seconds, followed by a step of -100 mV for 20 ms, followed by a 20 ms step for 10 mV for Nav 1.8 or 0 mV for Nav 1.7 (TP1A) before returning to the holding voltage of -100 mV.
(§5) The protocol was repeated at a frequency of 0.05 Hz and the amplitude of the current was quantified throughout the recording of the TP1A phase. The variation in the amplitude of the peak current was evaluated according to the formula described below, after exposing the cells expressing the channels to each concentration of the different compounds: % Block = (1−(ITP1A,molecule/ITP1A,basal)×100%, [formula] wherein ITP1A,basal and ITP1A,molecule represent the peaks of sodium current input into TP1A before exposure to the compound and in the presence of the compound, respectively.
(§6) Data were obtained by nonlinear regression (nonlinear least squares) with XLfit for Excel (Microsoft, Redmond, WA).
(§7) The compounds were tested in at least one assay to obtain the value of CI50. For compounds that were tested in two or more assays, the results are described as the mean of the CI50 values.

Assay [2] has as its target T2, human sodium channels Nav 1.7 (Homo sapiens, UniProt Q15858).
T2 construct: expressed in transfected cells
The assay can be described thus: Automated whole-cell voltage-clamp (ScreenPatch 384P) sodium current block, Nav 1.7. The format is cell-based. Particulars: CHO cells stably expressing human Nav 1.7; holding -100 mV, inactivation step -40 mV for 8 seconds, test step 0 mV (TP1A); exposure at least five minutes, room temperature; mean where tested in two or more assays; read-out: Nav1.7 IC50. The method, then:
as §1, §2, §3, §4, §5, §6, §7

T1 sequence (Q9Y5Y9 whole entry): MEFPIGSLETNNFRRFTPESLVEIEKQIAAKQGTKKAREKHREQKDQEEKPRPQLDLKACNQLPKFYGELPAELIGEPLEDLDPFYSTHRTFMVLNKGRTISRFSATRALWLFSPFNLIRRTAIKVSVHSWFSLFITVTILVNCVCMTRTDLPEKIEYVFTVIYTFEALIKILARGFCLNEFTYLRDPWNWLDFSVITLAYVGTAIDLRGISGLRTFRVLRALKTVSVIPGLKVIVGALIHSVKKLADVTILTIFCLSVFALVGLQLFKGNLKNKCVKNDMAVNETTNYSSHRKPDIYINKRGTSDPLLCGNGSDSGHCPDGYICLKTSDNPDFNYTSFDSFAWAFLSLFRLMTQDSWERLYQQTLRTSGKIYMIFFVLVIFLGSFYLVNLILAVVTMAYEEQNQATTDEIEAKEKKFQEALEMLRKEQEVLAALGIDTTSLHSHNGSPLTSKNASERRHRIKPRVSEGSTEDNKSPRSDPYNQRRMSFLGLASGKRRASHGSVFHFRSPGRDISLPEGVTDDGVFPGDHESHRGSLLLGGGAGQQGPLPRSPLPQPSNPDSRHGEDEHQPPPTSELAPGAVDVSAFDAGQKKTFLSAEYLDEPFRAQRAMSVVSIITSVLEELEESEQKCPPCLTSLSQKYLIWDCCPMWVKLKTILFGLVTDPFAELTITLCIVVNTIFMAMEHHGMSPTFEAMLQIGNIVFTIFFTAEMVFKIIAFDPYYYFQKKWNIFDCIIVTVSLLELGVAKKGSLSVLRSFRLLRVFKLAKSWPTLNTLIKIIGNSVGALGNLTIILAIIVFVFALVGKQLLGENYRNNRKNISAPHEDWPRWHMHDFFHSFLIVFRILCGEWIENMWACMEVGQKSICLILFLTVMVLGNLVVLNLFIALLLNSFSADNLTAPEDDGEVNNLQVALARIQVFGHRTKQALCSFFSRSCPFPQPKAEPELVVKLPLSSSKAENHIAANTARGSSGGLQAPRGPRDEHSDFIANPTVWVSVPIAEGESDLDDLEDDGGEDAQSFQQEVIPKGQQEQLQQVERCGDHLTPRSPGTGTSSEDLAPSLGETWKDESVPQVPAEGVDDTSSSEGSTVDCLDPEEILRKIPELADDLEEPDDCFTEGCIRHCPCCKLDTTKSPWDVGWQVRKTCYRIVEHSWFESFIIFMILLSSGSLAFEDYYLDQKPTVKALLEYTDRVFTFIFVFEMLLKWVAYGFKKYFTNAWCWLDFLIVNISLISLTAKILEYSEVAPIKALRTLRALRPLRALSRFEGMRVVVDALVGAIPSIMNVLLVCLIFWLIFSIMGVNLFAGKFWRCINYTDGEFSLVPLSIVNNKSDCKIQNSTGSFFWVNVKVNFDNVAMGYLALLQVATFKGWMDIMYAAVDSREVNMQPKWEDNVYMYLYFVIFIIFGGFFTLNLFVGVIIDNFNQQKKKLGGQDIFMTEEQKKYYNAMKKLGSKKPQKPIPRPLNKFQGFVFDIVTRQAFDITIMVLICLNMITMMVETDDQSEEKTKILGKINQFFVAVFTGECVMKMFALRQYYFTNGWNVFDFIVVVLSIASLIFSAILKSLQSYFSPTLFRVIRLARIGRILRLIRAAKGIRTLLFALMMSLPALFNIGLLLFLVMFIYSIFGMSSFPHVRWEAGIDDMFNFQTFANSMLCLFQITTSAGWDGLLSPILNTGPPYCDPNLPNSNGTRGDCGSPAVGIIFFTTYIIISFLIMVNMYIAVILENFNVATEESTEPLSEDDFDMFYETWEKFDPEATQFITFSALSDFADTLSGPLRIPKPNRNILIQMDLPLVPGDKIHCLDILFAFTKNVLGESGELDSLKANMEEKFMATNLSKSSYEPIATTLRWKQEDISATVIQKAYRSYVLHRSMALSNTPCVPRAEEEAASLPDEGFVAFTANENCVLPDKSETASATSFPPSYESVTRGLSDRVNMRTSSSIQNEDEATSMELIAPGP
T2 sequence (Q15858 whole entry): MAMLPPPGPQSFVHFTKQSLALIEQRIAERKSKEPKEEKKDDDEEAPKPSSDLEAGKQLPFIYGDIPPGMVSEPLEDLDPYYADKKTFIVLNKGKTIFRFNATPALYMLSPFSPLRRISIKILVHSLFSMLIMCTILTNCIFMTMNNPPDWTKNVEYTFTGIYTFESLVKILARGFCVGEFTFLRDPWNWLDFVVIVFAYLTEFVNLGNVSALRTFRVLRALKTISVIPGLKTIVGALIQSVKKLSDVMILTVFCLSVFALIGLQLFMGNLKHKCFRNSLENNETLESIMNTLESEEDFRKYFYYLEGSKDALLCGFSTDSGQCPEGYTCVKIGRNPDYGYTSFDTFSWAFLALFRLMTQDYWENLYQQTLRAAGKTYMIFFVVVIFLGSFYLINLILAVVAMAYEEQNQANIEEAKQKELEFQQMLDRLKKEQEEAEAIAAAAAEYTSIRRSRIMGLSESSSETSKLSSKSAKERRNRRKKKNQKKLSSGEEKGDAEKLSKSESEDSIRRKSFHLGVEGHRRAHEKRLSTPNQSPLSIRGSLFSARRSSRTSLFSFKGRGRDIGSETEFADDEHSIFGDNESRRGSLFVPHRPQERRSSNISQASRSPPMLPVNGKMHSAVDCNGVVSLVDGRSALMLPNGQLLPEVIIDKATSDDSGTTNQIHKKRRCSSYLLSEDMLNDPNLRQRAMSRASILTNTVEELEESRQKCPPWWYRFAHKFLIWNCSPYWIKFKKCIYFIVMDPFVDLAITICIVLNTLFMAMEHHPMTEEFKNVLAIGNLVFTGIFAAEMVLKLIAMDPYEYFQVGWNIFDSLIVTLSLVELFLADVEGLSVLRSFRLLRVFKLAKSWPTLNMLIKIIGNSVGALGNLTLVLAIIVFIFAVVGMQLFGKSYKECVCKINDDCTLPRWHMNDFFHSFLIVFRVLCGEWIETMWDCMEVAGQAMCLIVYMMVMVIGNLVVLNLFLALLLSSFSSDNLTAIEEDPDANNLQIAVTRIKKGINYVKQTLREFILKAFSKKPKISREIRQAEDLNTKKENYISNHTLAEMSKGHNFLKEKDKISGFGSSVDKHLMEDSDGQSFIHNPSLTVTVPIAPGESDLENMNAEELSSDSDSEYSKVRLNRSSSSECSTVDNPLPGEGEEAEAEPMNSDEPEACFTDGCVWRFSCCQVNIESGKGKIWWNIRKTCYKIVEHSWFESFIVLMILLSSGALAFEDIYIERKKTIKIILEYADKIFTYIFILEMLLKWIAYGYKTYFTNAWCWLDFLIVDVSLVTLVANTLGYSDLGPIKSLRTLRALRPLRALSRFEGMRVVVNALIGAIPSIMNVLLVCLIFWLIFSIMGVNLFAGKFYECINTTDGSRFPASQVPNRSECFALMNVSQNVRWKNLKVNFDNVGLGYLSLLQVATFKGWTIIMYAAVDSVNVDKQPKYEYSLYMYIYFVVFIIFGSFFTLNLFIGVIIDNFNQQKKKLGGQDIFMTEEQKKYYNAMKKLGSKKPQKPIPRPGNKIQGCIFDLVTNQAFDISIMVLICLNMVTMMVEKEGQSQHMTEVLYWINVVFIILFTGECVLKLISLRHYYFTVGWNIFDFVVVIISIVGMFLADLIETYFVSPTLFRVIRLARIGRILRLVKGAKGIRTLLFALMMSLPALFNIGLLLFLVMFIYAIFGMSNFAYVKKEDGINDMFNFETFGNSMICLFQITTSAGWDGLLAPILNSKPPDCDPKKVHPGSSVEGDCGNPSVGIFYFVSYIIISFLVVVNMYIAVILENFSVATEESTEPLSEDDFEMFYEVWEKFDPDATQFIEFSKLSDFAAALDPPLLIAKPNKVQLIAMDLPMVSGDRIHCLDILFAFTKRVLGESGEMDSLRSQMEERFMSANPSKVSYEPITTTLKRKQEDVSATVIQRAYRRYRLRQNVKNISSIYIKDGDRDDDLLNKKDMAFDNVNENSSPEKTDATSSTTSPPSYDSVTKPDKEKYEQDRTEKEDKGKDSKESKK

What is called IC50 is the point on the concentration scale where inhibition reaches its midpoint. For the compound `COc1cc(CCNC(=O)c2cncc(-c3ccc(OC(C)C)cc3)n2)cc(OC)c1` [compound 1], the IC50 in assay [1] was 500 to 1000 nM; in assay [2], > 1000 nM.
For `COc1cc(CCNC(=O)c2cncc(-c3ccc(OC(F)F)cc3)n2)cc(OC)c1` [compound 2], in that order: < 500 nM and 500 to 1000 nM.
Regarding `CCOc1ccc(-c2cncc(C(=O)NCCc3cc(OC)cc(OC)c3)n2)c(F)c1` [compound 3], the IC50 in assay [1] was < 500 nM; in assay [2], > 1000 nM.
For `CCOc1ccc(-c2cncc(C(=O)NCCc3cc(OC)cc(OC)c3)n2)c(C)c1` [compound 4], in that order: < 500 nM and < 500 nM.
Regarding `CCOc1ccc(-c2cncc(C(=O)NCCc3cccc(OC)c3)n2)cc1` [compound 5], the IC50 in assay [1] and in assay [2] was < 500 nM each time.
Regarding `CCOc1ccc(-c2cncc(C(=O)NCCc3ccccc3F)n2)cc1` [compound 6], the IC50 in assay [1] and in assay [2] was < 500 nM throughout.
As to `CCOc1ccc(-c2cncc(C(=O)NCCc3cc(OC)cc(OC)c3)n2)cc1` [compound 10], the IC50 in assay [1] was < 500 nM; in assay [2] it was 500 to 1000 nM.
For `CCOc1ccc(-c2cncc(C(=O)NCCc3cc(OC)cc(C(C)O)c3)n2)cc1` (stereo not shown) [compound 12], in that order: < 500 nM and > 1000 nM.
Regarding `CCOc1ccc(-c2cncc(C(=O)NCCc3cccc(C(C)O)c3)n2)cc1` (stereo not shown) [compound 13], the IC50 in assay [1] is < 500 nM; in assay [2], > 1000 nM.
As for `CCOc1ccc(-c2cncc(C(=O)NCCc3cc(C(C)O)cnc3F)n2)cc1` (stereo not shown) [compound 14], the IC50 in assay [1] and in assay [2] was > 1000 nM throughout.
In the case of `CCOc1ccc(-c2cncc(C(=O)NCCc3cc(C(C)O)ccc3F)n2)cc1` (stereo not shown) [compound 15], the IC50 is < 500 nM in assay [1] and > 1000 nM in assay [2].
In the case of `CCOc1ccc(-c2cncc(C(=O)NCCc3cc(OC)cnc3F)n2)cc1` [compound 16], the figures for the IC50 in assay [1] and in assay [2] were < 500 nM and > 1000 nM, respectively.
For `CCOc1ccc(-c2cncc(C(=O)NCCc3cc(OC)ccc3F)n2)cc1` [compound 17], in that order: < 500 nM and 500 to 1000 nM.
The like results for `CCOc1ccc(-c2cncc(C(=O)NCCc3cc(OC)cnc3C)n2)cc1` [compound 18] were, in that order, < 500 nM and > 1000 nM.
The like results for `CCOc1ccc(-c2cncc(C(=O)NC[C@H](C)c3cc(OC)cc(OC)c3)n2)cc1` [compound 22] were, in that order, < 500 nM and > 1000 nM.
As for `CCOc1ccc(-c2cncc(C(=O)NC[C@H](O)c3cc(OC)cc(OC)c3)n2)cc1` [compound 24], the IC50 in assay [1] and in assay [2] was > 1000 nM in each case.
As to `CCOc1ccc(-c2cncc(C(=O)NC[C@@H](O)c3cc(OC)cc(OC)c3)n2)cc1` [compound 25], the IC50 in assay [1] and in assay [2] was > 1000 nM throughout.
For the compound `CCOc1ccc(-c2cncc(C(=O)NC[C@H](N)c3cc(OC)cc(OC)c3)n2)cc1` [compound 26], the IC50 in assay [1] and in assay [2] was > 1000 nM throughout.
Take `CCOc1ccc(-c2cncc(C(=O)NC[C@@H](N)c3cc(OC)cc(OC)c3)n2)cc1` [compound 27]: the IC50 in assay [1] and in assay [2] was < 500 nM throughout.
For `COc1cc(CCNC(=O)c2cncc(-c3ccc(OC(C)C)nc3)n2)cc(OC)c1` [compound 28], the IC50 is < 500 nM in assay [1] and 500 to 1000 nM in assay [2].
For `COc1cc(CCNC(=O)c2cncc(-c3ccc(OC(F)F)nc3)n2)cc(OC)c1` [compound 29], in that order: < 500 nM and 500 to 1000 nM.
`CCOc1cc(C)c(-c2cncc(C(=O)NCCc3cc(OC)cc(OC)c3)n2)cn1` [compound 30]: the IC50 in assay [1] and in assay [2] was > 1000 nM each time.
On to `CCOc1ccc(-c2cncc(C(=O)NCCc3cc(OC)cc(OC)c3)n2)c(C)n1` [compound 31], for which the half-inhibitory concentration (IC50) in assay [1] and in assay [2] was > 1000 nM throughout.
Regarding `CCOc1ccc(-c2cncc(C(=O)NCCc3cc(OC)cnc3F)n2)cn1` [compound 34], the IC50 in assay [1] is < 500 nM; in assay [2] it was 500 to 1000 nM.
For the compound `CCOc1ccc(-c2cncc(C(=O)NCCc3cc(OC)cc(C(C)O)c3)n2)cn1` (stereo not shown) [compound 40], the IC50 in assay [1] and in assay [2] was > 1000 nM each time.
On to `CCOc1ccc(-c2cncc(C(=O)NCCc3cccc(C(C)O)c3)n2)cn1` (stereo not shown) [compound 41], for which the IC50 in assay [1] and in assay [2] was > 1000 nM in each case.
As for `CCOc1ccc(-c2cncc(C(=O)NCCc3cc(C(C)O)ccc3F)n2)cn1` (stereo not shown) [compound 43], the results for the IC50 in assay [1] and in assay [2] were < 500 nM and 500 to 1000 nM, respectively.
The like results for `CCOc1ccc(-c2cncc(C(=O)NCCc3cc(OC)cc(OC)c3)n2)cn1` [compound 44] were, in that order, > 1000 nM and > 1000 nM.
The like results for `CCOc1ccc(-c2cncc(C(=O)NCCc3cccc(OC)c3)n2)cn1` [compound 45] were, in that order, < 500 nM and 500 to 1000 nM.
Regarding `O=C(NCCc1ccccc1F)c1cncc(-c2ccc(OC(F)F)nc2)n1` [compound 47], the IC50 in assay [1] and in assay [2] was > 1000 nM in each case.
With `COc1ccc(-c2cncc(C(=O)NCCc3ccccc3F)n2)cn1` [compound 48], the 50% inhibitory concentration (IC50) in assay [1] and in assay [2] was > 1000 nM each time.
Turning to `COc1ccc(-c2cncc(C(=O)NCCc3cc(OC)cc(OC)c3)n2)cc1` [compound 49], the IC50 in assay [1] and in assay [2] was > 1000 nM in each case.
With `COc1cnc(F)c(CCNC(=O)c2cncc(-c3ccc(OC(F)F)cc3)n2)c1` [compound 50], the IC50 in assay [1] and in assay [2] was > 1000 nM in each case.
As to `COc1cnc(F)c(CCNC(=O)c2cncc(-c3ccc(OC(F)F)nc3)n2)c1` [compound 51], the IC50 in assay [1] and in assay [2] was > 1000 nM in each case.
On to `COc1ccc(-c2cncc(C(=O)NCCc3cc(OC)cnc3F)n2)cc1` [compound 52], for which the IC50 in assay [1] was < 500 nM; in assay [2] it was > 1000 nM.
`COc1cnc(F)c(CCNC(=O)c2cncc(-c3ccc(OC)nc3)n2)c1` [compound 53]: the IC50 in assay [1] was < 500 nM; in assay [2], 500 to 1000 nM.
For the compound `COc1cc(OC)cc([C@H](O)CNC(=O)c2cncc(-c3ccc(OC(F)F)cc3)n2)c1` [compound 54], the values for the half-maximal inhibitory concentration (IC50) in assay [1] and in assay [2] were < 500 nM and > 1000 nM, respectively.
For `COc1ccc(-c2cncc(C(=O)NC[C@@H](O)c3cc(OC)cc(OC)c3)n2)cc1` [compound 55], in that order: < 500 nM and > 1000 nM.
On to `COc1cnc(F)c(CCNC(=O)c2cncc(-c3ccc(C(C)(C)O)cc3)n2)c1` [compound 56], for which the IC50 in assay [1] and in assay [2] was > 1000 nM each time.
For the compound `COc1cnc(F)c(CCNC(=O)c2cncc(-c3ccc(C(C)(C)O)nc3)n2)c1` [compound 57], the IC50 in assay [1] and in assay [2] was > 1000 nM each time.
In the case of `COc1cnc(F)c(CCNC(=O)c2cncc(-c3ccc(C(C)O)nc3)n2)c1` (stereo not shown) [compound 58], the IC50 in assay [1] and in assay [2] was > 1000 nM throughout.
With `COc1cnc(F)c(CCNC(=O)c2cncc(-c3ccc(C(C)O)cc3)n2)c1` (stereo not shown) [compound 59], the IC50 in assay [1] and in assay [2] was > 1000 nM in each case.
With `[2H]C([2H])([2H])Oc1ccc(-c2cncc(C(=O)NC[C@@H](O)c3cc(OC([2H])([2H])[2H])cc(OC([2H])([2H])[2H])c3)n2)cc1` [compound 99], the IC50 in assay [1] is 500 to 1000 nM.
